Assays:
[1] = RLM metabolic stability (% remaining); conditions: for RLM 10000 % REM.: 10000 (unit not given); for RLM 100000 % REM.: 100000 (unit not given)
[2] = MLM metabolic stability (% remaining); conditions: for MLM 10000 % REM.: 10000 (unit not given); for MLM 100000 % REM.: 100000 (unit not given)

Row | SMILES | RLM 10000 % REM. [1] | RLM 100000 % REM. [1] | MLM 10000 % REM. [2] | MLM 100000 % REM. [2]
1 | CCN(CC)C(=O)c1ccc(N(c2cccc(O)c2)C2CCN(Cc3ccc(I)cc3)CC2)cc1 [Example 19, N,N-diethyl-4-[(3-hydroxyphenyl)[1-[(4-iodophenyl)methyl]-4-piperidinyl]amino]-benzamide] | 0% | 35.667% | 30.667% | 61.667%
2 | CCN(CC)C(=O)c1ccc(N(c2cccc(O)c2)C2CCN(Cc3ccsc3)CC2)cc1 [Example 16, N,N-diethyl-4-[(3-hydroxyphenyl)[1-(3-thienylmethyl)-4-piperidinyl]amino]-benzamide] | 1.5% | 66.5% | 5% | 83%
3 | CCN(CC)C(=O)c1ccc(N(c2cccc(O)c2)C2CCN(Cc3ccccc3)CC2)cc1 [Example 1] | 4.333% | 66.125% | 10.4% | 85.2%
4 | CCN(CC)C(=O)c1ccc(N(c2cccc(O)c2)C2CCN(Cc3cccs3)CC2)cc1 [Example 28, N,N-diethyl-4-[(3-hydroxyphenyl)[1-(2-thienylmethyl)-4-piperidinyl]amino]-benzamide] | 1.5% | 52% | 1.5% | 80%
5 | CCN(CC)C(=O)c1ccc(N(c2cccc(O)c2)C2CCN(Cc3ccoc3)CC2)cc1 [Example 15, N,N-diethyl-4-[[1-(3-furanylmethyl)-4-piperidinyl](3-hydroxyphenyl)amino]-benzamide] | 8% | 73% | 3.5% | 83.5%
6 | CCN(CC)C(=O)c1ccc(N(c2cccc(O)c2)C2CCN(Cc3ccc(Br)cc3)CC2)cc1 [Example 20, N,N-diethyl-4-[[1-[(4-bromophenyl)methyl]-4-piperidinyl](3-hydroxyphenyl)amino]-benzamide] | 4.5% | 51.5% | 30.5% | 81.5%
7 | CCN(CC)C(=O)c1ccc(N(c2cccc(O)c2)C2CCN(Cc3ccc(C)cc3)CC2)cc1 [Example 26, N,N-diethyl-4-[(3-hydroxyphenyl)[1-[(4-methylphenyl)methyl]-4-piperidinyl]amino]-benzamide] | 3.5% | 63.5% | 31.5% | 86%
8 | CCN(CC)C(=O)c1ccc(N(c2cccc(O)c2)C2CCN(Cc3ccccc3F)CC2)cc1 [Example 25, N,N-diethyl-4-[[1-[(2-fluorophenyl)methyl]-4-piperidinyl](3-hydroxyphenyl)amino]-benzamide] | 4% | 71% | 0% | 71%
9 | CCN(CC)C(=O)c1ccc(N(c2cccc(O)c2)C2CCN(Cc3ccc(Cl)cc3Cl)CC2)cc1 [Example 23, 4-[[1-[(2,4-dichlorophenyl)methyl]-4-piperidinyl](3-hydroxyphenyl)amino]-N,N-diethyl-benzamide] | 20.5% | 75% | 30.5% | 93%
10 | CCN(CC)C(=O)c1ccc(N(c2cccc(O)c2)C2CCN(Cc3ncc[nH]3)CC2)cc1 [Example 29, N,N-diethyl-4-{3-hydroxy[1-(1H-imidazol-2-ylmethyl)-4-piperidinyl]anilino}benzamide] | 36.5% | 74.5% | 6% | 92.5%
11 | CCN(CC)C(=O)c1ccc(N(c2cccc(O)c2)C2CCN(Cc3ccc(Cl)cc3)CC2)cc1 [Example 21, N,N-diethyl-4-[[1-[(4-chlorophenyl)methyl]-4-piperidinyl](3-hydroxyphenyl)amino]-benzamide] | 2.333% | 45% | 16.333% | 85%
12 | CCN(CC)C(=O)c1ccc(N(c2cccc(O)c2)C2CCN(Cc3cccc(F)c3)CC2)cc1 [Example 24, N,N-diethyl-4-[[1-[(3-fluorophenyl)methyl]-4-piperidinyl](3-hydroxyphenyl)amino]-benzamide] | 3.5% | 87.5% | 3.5% | 71.5%
13 | CCN(CC)C(=O)c1ccc(N(c2cccc(O)c2)C2CCN(Cc3ccco3)CC2)cc1 [Example 27, N,N-diethyl-4-[[1-(2-furanylmethyl)-4-piperidinyl](3-hydroxyphenyl)amino]-benzamide] | 3.5% | 54.5% | 2% | 65%
14 | CCN(CC)C(=O)c1ccc(N(c2cccc(O)c2)C2CCN(Cc3ccccn3)CC2)cc1 [Example 30, N,N-diethyl-4-{3-hydroxy[1-(2-pyridinylmethyl)-4-piperidinyl]anilino}benzamide] | 31% | 74% | 26% | 82%
15 | CCN(CC)C(=O)c1ccc(N(c2cc(O)ccc2F)C2CCN(Cc3ccccc3)CC2)cc1 [Example 6, N,N-diethyl-4-[(2-fluoro-5-hydroxyphenyl)[1-(phenylmethyl)-4-piperidinyl]amino]-benzamide] | 5.333% | 81.333% | 2% | 69%
16 | CCN(CC)C(=O)c1ccc(N(c2cccc(O)c2)C2CCN(Cc3ccc(F)cc3)CC2)cc1 [Example 22, N,N-diethyl-4-[[1-[(4-fluorophenyl)methyl]-4-piperidinyl](3-hydroxyphenyl)amino]-benzamide] | 17% | 63% | 8.5% | 85%
